Reference: publication PMC3816707, “Diamidines versus Monoamidines as Anti-Pneumocystis Agents: An in vivo Study” (Pharmaceuticals, 2013)
Counter-ions that a name gives are not always drawn.

What was measured:
[1] = In vitro cytotoxicity, MTT-based cell viability assay; design: species or system murine; details: mouse, 3T6 embryonal fibroblast cells (adherent); 3T6 murine embryonal fibroblast cell line, MTT, triplicate, mean
Procedure: (§1) In vitro cytotoxicity assays with established cell lines are useful tools for the general screening of chemicals in toxicological studies. […] The procedure, according to the manufacturer recommendations, was based on the colorimetric determination of the succinate dehydrogenase activity by visualization (540 nm) of the conversion of a tetrazolium salt into formazan. With a microplate reader (Thermo Labsystems Multiskan Ascent 354, Waltham, MA, USA), the optical density of each well was measured at 540 nm against the background absorbance whose reference filter was set at 690 nm. Blank controls (culture medium), free-drug controls, and solvent (DMSO) controls were included in each assay. All cytotoxicity assays were set up in triplicate. […] The IC50 parameters were obtained by plotting % inhibition values against the logarithm of concentration for each compound.
(§2) For each compound, the % inhibition of activity against the concentration scale was plotted. The 50% inhibiting concentrations of cell proliferation (IC50) were calculated by locating the x-axis values corresponding to one-half of the absorbance values. The experiments were repeated in triplicate for each substance.

3T6 fibroblast cell line = test: as above; design: species or system murine; details: for Cytotoxicity: 3T6 cell line; for IC50 fold higher than for the reference compound (pentamidine): 3T6 cytotoxicity
Procedure: as §1, §2

Pneumocystis carinii [2] = test: In vitro anti-Pneumocystis activity, P. carinii axenic short culture (4 days); type: cell-based; details: for Anti-Pneumocystis activity % inhibition vs. free-drug control at 0.1 µg/mL / inhibition of growth at 50 µg/mL / Anti-Pneumocystis activity % inhibition vs. free-drug control at 10 µg/mL / Anti-Pneumocystis activity % inhibition vs. free-drug control at 50 µg/mL: 4 days axenic culture; for inhibition of growth at 50 µg/mL / inhibition of growth at 10 µg/mL / inhibition of growth at 0.1 µg/mL / EC50: Pneumocystis carinii, 96 h; for inhibition of growth at 50 µg/mL: read-out: Anti-Pneumocystis activity % inhibition vs. free-drug control at 50 µg/mL; for inhibition of growth at 10 µg/mL: read-out: Anti-Pneumocystis activity % inhibition vs. free-drug control at 10 µg/mL, 10 µg/mL, 4 days axenic culture; for inhibition of growth at 0.1 µg/mL: read-out: Anti-Pneumocystis activity % inhibition vs. free-drug control at 0.1 µg/mL, 0.1 µg/mL, 4 days axenic culture; for EC50: 150 to 1.35 10^-5 µM, read-out: EC50 against P. carinii
Procedure: Drug stock solutions in DMSO (10 mg/mL) were diluted in Dulbecco's Modified Eagle's Medium (DMEM, BioWhittaker) supplemented with 10% heat-inactivated foetal calf serum (FCS, Gibco-BRL) to produce the required drug concentrations. P. carinii axenic short cultures were performed as follows. All the experiments were carried out in 24-well plates with a final volume of 2 mL of DMEM supplemented with 10% of heat-inactivated fetal calf serum (FCS) containing a final inoculum of 10^6 organisms per mL. Plates were incubated for 4 days in an atmosphere of 5% CO2 at 37 °C. Then, P. carinii organisms were collected and quantified after RAL-555 panoptic staining. In parallel with these free-drug growth control wells, the anti-Pneumocystis effect of pentamidine and the other bisbenzamidines considered in this study was investigated in the same conditions. All molecules have been screened at a high (50 µg/mL), a medium (10 µg/mL), and a low (0.1 µg/mL) concentration. All experiments were performed in triplicate and data were statistically processed using Student’s t-test. Two-sided p-values < 0.05 were deemed to be statistically significant.
The parameters of this pharmacodynamic model were calculated by nonlinear least-squares regression techniques using commercial software (Sigma Plot, Systat Software Inc., San Jose, CA, USA).

Pneumocystis carinii [3] = test: In vivo anti-Pneumocystis activity, P. carinii pneumonia in nude rats; design: species or system athymic Lou nu/nu rats; details: for % of inhibition versus control rats: once a day for 10 days, P. carinii count in lung homogenates; for In vivo anti-Pneumocystis activity: subcutaneous, 5 and 20 mg/kg/day, 10 days
Procedure: To evaluate the in vivo anti-Pneumocystis activity, drug stock solutions in DMSO (300 mg/mL) were diluted in phosphate buffered saline (PBS, BioWhittaker) to produce the required final drug concentrations just before subcutaneous injection. Seven weeks p.i., animals were divided into groups of 4, and then pentamidine and derivatives 4 and 6 were dosed at 5 or 20 mg/kg by subcutaneous route. The drugs were given once a day for 10 consecutive days. The final concentration of DMSO in diluted drug solutions was maintained between 1.5% and 6%. Control animals received doses of 6%-DMSO in sterile water. Twenty-four hours after the end of the treatment, animals were euthanatized and the lung homogenised in a Stomacher-400 blender as previously described. Quantitation of trophic forms, sporocytes, and cysts was performed on air-dried smears stained with RAL-555 stain [34, 37, 38]. Therapeutic efficacy was assessed by counting P. carinii parasites in lung homogenates and comparing them with those of the untreated controls at the end of the experiment. The results were expressed as percentage of inhibition versus drug-free animal controls and presented as mean and standard error. Data were analyzed using a two-way analysis of variance (PROC MIXED, SAS Institute, Cary, NC, USA), with sex, drug, and their interaction as independent predictors. Due to heterogeneity in parasites count distributions, the first step of the analysis was the selection of the within-subject covariance, based either on likelihood ratio tests or on the Bayesian Information Criterion. Then, tests of the fixed effects were performed. No interaction was found between sex and drug. Therapeutic efficacy was assessed with polynomial contrasts. Regression underlying assumptions were visually inspected with residual plots. Statistical significance was set at α = 0.05.
An in vivo experiment was performed in order to explore whether it reflected in vitro results. The used in vivo model was the athymic Pneumocystis-free Lou nu/nu rats non-surgically inoculated by endo-tracheal route with a suspension of P. carinii organisms. […] Rats developed high infection levels 6–8 weeks post inoculation without secondary fungal or bacterial infection. […] Thus animals were endotracheally infected after 2 weeks of dexamethasone administration (1 mg/L, drinking water) with 10^7 P. carinii organisms. Drugs were administered once a day by subcutaneous route for 10 consecutive days. Untreated animals developed extensive infections at the end of the treatment period. The number of total P. carinii organisms per lung in DMSO control rats was 1.26 ± 0.20 × 10^10. […] On the other hand, whereas showing a strong anti-Pneumocystis activity in vitro, the monoamidine 7 appeared to be poorly potent when administered subcutaneously to Pneumocystis-infected rats, even at the dose of 20 mg/kg/day.

[4] = design: method as in PMID 21147326; details: in comparison with pentamidine and the diamidine 6; cited from earlier work
[5] = Visual observations of treated rats (behavior, injection site); type: in vivo, rat; details: for Cutaneous reaction at the site of injections: subcutaneous treatment, data not shown
[6] = Hill equation, 4 days of culture

| EC50 (Pneumocystis carinii [2]; [6]) [µM] | melting point [°C] | Compound | IC50 [1] [µM] | Cytotoxicity (3T6 fibroblast cell line) | Anti-Pneumocystis activity % inhibition vs. free-drug control at 0.1 µg/mL (Pneumocystis carinii [2]) | inhibition of growth at 50 µg/mL (Pneumocystis carinii [2]) [%] | inhibition of growth at 10 µg/mL (Pneumocystis carinii [2]) [%] | inhibition of growth at 0.1 µg/mL (Pneumocystis carinii [2]) [%] | % of inhibition versus control rats (Pneumocystis carinii [3]; 5 mg/kg/day subcutaneous) [%] | % of inhibition versus control rats (Pneumocystis carinii [3]; 20 mg/kg/day subcutaneous) [%] | Slope S (steepness of the concentration-effect curve) (Pneumocystis carinii [2]; [6]) | other results |
| --- | --- | --- | --- | --- | --- | --- | --- | --- | --- | --- | --- | --- |
| 0.4 ± 0.08 | – | N=C(N)c1ccc(NCCNc2ccccc2)cc1 [Compound 7, N-(Benzamidine-4-yl)-N′-phenylethane-1,2-diamine sulfate salt] | 40.6 ± 1.3 | no cytotoxicity | – | 99.5 ± 0.4 | 98.7 ± 0.6 | 42 ± 12.5 | 43.1 | 54.3 | 2.00 ± 0.54 | In vivo anti-Pneumocystis activity (Pneumocystis carinii [3]): poorly potent; IC50 fold higher than for the reference compound (pentamidine) (3T6 fibroblast cell line): 20 fold; Elimination from plasma [4]: more rapidly eliminated from plasma; Emax (Pneumocystis carinii [2]; Hill equation, maximum effect, 4 days of culture): 99.37 ± 2.54% |
| – | 191 to 193 | N=C(N)c1ccc(NCCNc2ccccc2)cc1 (as salt: sulfate) [Compound 7, N-(Benzamidine-4-yl)-N′-phenylethane-1,2-diamine sulfate salt] | – | – | – | – | – | – | – | – | – | – |
| – | 146 to 149 | Nc1ccc(N2CCN(c3ccccc3)CC2)cc1 [Compound 5, 1-(4-Aminophenyl)-4-phenylpiperazine] | 10.2 ± 0.6 | – | inactive | – | – | – | – | – | – | Anti-Pneumocystis activity % inhibition vs. free-drug control at 10 µg/mL (Pneumocystis carinii [2]): inactive; Anti-Pneumocystis activity % inhibition vs. free-drug control at 50 µg/mL (Pneumocystis carinii [2]): inactive |
| 0.08 ± 0.01 | – | N=C(N)c1ccc(OCCCCCOc2ccc(C(=N)N)cc2)cc1 [Compound 1, pentamidine, reference compound] | 1.98 ± 0.2 | – | – | 99 ± 0.1 | 99 ± 0.1 | 89 | 84.6 | 95.3 | 1.09 ± 0.23 | Cutaneous reaction at the site of injections [5]: deleterious wounds could be seen on the skin |
| 0.6 ± 0.12 | – | N=C(N)c1ccc(NCCNc2ccc(C(=N)N)cc2)cc1 [Compound 6, N,N′-bis(benzamidine-4-yl)ethane-1,2-diamine] | 30.2 ± 1.14 | no cytotoxicity | – | 98.7 ± 0.6 | 97.7 ± 0.6 | 29.8 ± 19.7 | 78.4 | 86.2 | 1.49 ± 0.31 | In vivo anti-Pneumocystis activity (Pneumocystis carinii [3]): strong anti-Pneumocystis activity comparable to that of pentamidine at both doses; IC50 fold higher than for the reference compound (pentamidine) (3T6 fibroblast cell line): 15 fold; Cutaneous reaction at the site of injections [5]: did not develop any cutaneous reaction; Behavior during the treatment ([5]; visual observations): quite normal behavior |

Continued, molecule first:

| Compound | EC50 (Pneumocystis carinii [2]; [6]) [µM] | melting point [°C] | IC50 [1] [µM] | Cytotoxicity (3T6 fibroblast cell line) | Anti-Pneumocystis activity % inhibition vs. free-drug control at 0.1 µg/mL (Pneumocystis carinii [2]) | inhibition of growth at 50 µg/mL (Pneumocystis carinii [2]) [%] | inhibition of growth at 10 µg/mL (Pneumocystis carinii [2]) [%] | inhibition of growth at 0.1 µg/mL (Pneumocystis carinii [2]) [%] | % of inhibition versus control rats (Pneumocystis carinii [3]; 5 mg/kg/day subcutaneous) [%] | % of inhibition versus control rats (Pneumocystis carinii [3]; 20 mg/kg/day subcutaneous) [%] | Slope S (steepness of the concentration-effect curve) (Pneumocystis carinii [2]; [6]) | other results |
| --- | --- | --- | --- | --- | --- | --- | --- | --- | --- | --- | --- | --- |
| CN(CCNc1ccccc1)c1ccc(C(=N)N)cc1 [Compound 9, N-(Benzamidine-4-yl)-N-methyl-N′-phenylethane-1,2-diamine hydrochloride salt] | – | – | 3.11 ± 0.09 | cytotoxicity similar to that of pentamidine | inactive | 88.7 ± 2.5 | 86.3 ± 4 | – | – | – | – | – |
| CN(CCNc1ccc(C(=N)N)cc1)c1ccc(C(=N)N)cc1 [Compound 8] | – | – | 2.48 ± 0.35 | cytotoxicity similar to that of pentamidine | – | 99 | 99 | 15 ± 12.5 | – | – | – | – |
| Nc1ccc(N2CCN(c3ccc(N)cc3)CC2)cc1 [Compound 4] | – | – | 40.8 ± 4.4 | – | inactive | – | – | – | – | – | – | Anti-Pneumocystis activity % inhibition vs. free-drug control at 10 µg/mL (Pneumocystis carinii [2]): inactive; Anti-Pneumocystis activity % inhibition vs. free-drug control at 50 µg/mL (Pneumocystis carinii [2]): inactive |
| N=C(N)c1ccc(N2CCN(c3ccccc3)CC2)cc1 [Compound 3] | – | – | 56.06 ± 0.39 | – | – | 99 ± 0.1 | 99 ± 0.1 | 8.3 ± 14.4 | – | – | – | – |
| CN(CCNc1ccccc1)c1ccc(C(=N)N)cc1 (as salt: hydrochloride) [Compound 9, N-(Benzamidine-4-yl)-N-methyl-N′-phenylethane-1,2-diamine hydrochloride salt] | – | 212 to 215 | – | – | – | – | – | – | – | – | – | – |
